# From patent publication US9308179B2, “Long circulating nanoparticles for sustained release of therapeutic agents” (BIND Therapeutics, Inc., priority 2008, dated 2016)
# Read-outs that look alike come from different tables or passages of the source. Marks after values point to notes of the source that are not given here.
# Assays:
# [1] = Pharmacokinetics of docetaxel nanoparticles in primates; format: in vivo, non human primates; set-up: Cmax/D / AUC/D: unit not given beside the values; settings: for AUC / Cl / Vz / half-life / Cmax: 30 minute IV infusion; for half-life: in vivo
# Protocol: 1 male and 1 female were used per dose group. The dosing day was 1 day and the formulations were administered by 30 minute IV infusion at 25 mg/m^2 docetaxel or 50 mg/m^2 docetaxel (animals were randomized and then dosed with 50 mg/m2 on day 29 and PK, hematology and clinical chemistry were measured for 21 days). At the end of the study, PK, hematology and clinical chemistry collected over a 21 day period were assessed. FIG. 12 depicts the results of male (M) and female (F) PNP.
# [2] = tested on: human LNCaP prostate cancer cells; assay: Anti-tumor activity after repeated doses in human tumor xenograft model (LNCaP); format: in vivo, SCID mice; settings: Q2D for four doses, eight day holiday, another four doses; FIG. 7
# Protocol: Male severe combined immunodeficiency (SCID) mice were subcutaneously inoculated with human LNCaP prostate cancer cells. Three to four weeks after inoculation, the mice were assigned to different treatment groups such that the average tumor volume in each group was 250 mm^3. Subsequently, the mice were treated every other day (Q2D) for four doses, with an eight day holiday, followed by another four doses at the Q2D schedule.
# MX-1 breast tumors = assay: Tumor accumulation of docetaxel nanoparticles in MX-1 breast tumors; format: in vivo, mice; settings: 10 mg/kg, 24 hours after injection, LC/MS/MS
# Protocol: Mice were then injected with 10 mg/kg of the test article, then euthanized 24 hours later and the tumors were removed and analyzed for docetaxel content using LC/MS/MS. Results are depicted in FIG. 12.
# [3] = Single dose pharmacokinetic study in Sprague-Dawley rats; format: in vivo; settings: male, rat
# Protocol: Six- to eight-week old male Sprague-Dawley rats were administered a single bolus dose (5 mg/kg of docetaxel) of docetaxel encapsulated in nanoparticles or conventional docetaxel via a tail vein. The dose groups consisted of six rats each. Blood was drawn at 0.083, 0.5, 1, 2, 3, 4, 6, and 24 hours post-dosing and processed to plasma. The concentration of total docetaxel in plasma was measured by a liquid chromatography-mass spectrometry (LC-MS) method following extraction with methyl tert-butyl ether (MTBE).
# [4] = 5 mg/kg, cited from earlier work
# [5] = Acute dose range finding study in Sprague-Dawley rats; format: in vivo; settings: 7 days
# Protocol: Sixty Sprague-Dawley rats (30/sex) were assigned to 10 dose groups (3 rats/sex/group) and were administered a single dose of either docetaxel encapsulated in nanoparticles (5.7, 7.5, 10, 15 or 30 mg/kg body weight) or conventional docetaxel (5.7, 7.5, 10, 15 or 30 mg/kg body weight).
# [6] = Tumor docetaxel concentration after a single dose in human tumor xenograft model (LNCaP); format: in vivo, SCID mice; settings: male, SCID, mouse
# Protocol: Male severe combined immunodeficiency (SCID) mice were subcutaneously inoculated with human LNCaP prostate cancer cells. Three to four weeks after inoculation, the mice were assigned to different treatment groups such that the average tumor volume in each group was 300 mm^3. At this time, a single intravenous (IV) dose of 50 mg/kg docetaxel was administered as either docetaxel encapsulated in nanoparticles or conventional docetaxel. The test subjects were sacrificed 2 hour or 12 hour post-dose. The tumors from each group were excised and assayed for docetaxel using liquid chromatography-mass spectrometry (LC-MS).
# [7] = Tissue distribution of radioactivity in rats after IV administration; format: in vivo, Sprague-Dawley rats
# Protocol: Six- to eight-week old male Sprague-Dawley rats were administered a single bolus intravenous dose of one of the following: (1) docetaxel encapsulated in nanoparticles in which the ligand of the PLA-PEG-lys(urea)glu targeting polymer was ^14C-labeled, (2) docetaxel encapsulated in nanoparticles in which the encapsulated docetaxel was ^14C-labeled, (3) ^14C-labeled conventional docetaxel.
# Blood was drawn at 1, 3, 6, 12, and 24 hours post-dosing and processed to plasma. Immediately following blood collection, the rats were euthanized by CO2 asphyxiation and tissues were immediately collected, blotted, weighed, and frozen on dry ice. Tissue samples were stored frozen (approximately −70° C.) until analysis for radioactivity by liquid scintillation (LS) counting.
# [8] = plasma, 5 mg/kg single IV bolus
compound,measurement,setting,value
"CC(=O)O[C@@]12CO[C@@H]1C[C@H](O)[C@@]1(C)C(=O)[C@H](O)C3=C(C)[C@@H](OC(=O)[C@H](O)[C@@H](NC(=O)OC(C)(C)C)c4ccccc4)C[C@@](O)([C@@H](OC(=O)c4ccccc4)[C@H]21)C3(C)C [Conventional Docetaxel, docetaxel]",AUC/D,"[1]; 25 mg/m2, F",109
same,Cmax/D,"[1]; 25 mg/m2, F",23.8
same,AUC,"[1]; 25 mg/m2, F",2.714 µg·h/mL
same,Cl,"[1]; 25 mg/m2, F",9213 mL/hr/m2
same,Vz,"[1]; 25 mg/m2, F",412186 mL/m2
same,AUC/D,"[1]; 25 mg/m2, M",102
same,Cmax/D,"[1]; 25 mg/m2, M",14.6
same,Cl,"[1]; 25 mg/m2, M",9794 mL/hr/m2
same,Vz,"[1]; 25 mg/m2, M",253783 mL/m2
same,AUC/D,"[1]; 50 mg/m2, F",72
same,Cmax/D,"[1]; 50 mg/m2, F",16.7
same,AUC,"[1]; 50 mg/m2, F",3.599 µg·h/mL
same,Cl,"[1]; 50 mg/m2, F",13893 mL/hr/m2
same,Vz,"[1]; 50 mg/m2, F",788340 mL/m2
same,AUC/D,"[1]; 50 mg/m2, M",76.5
same,Cmax/D,"[1]; 50 mg/m2, M",24.2
same,Cl,"[1]; 50 mg/m2, M",13073 mL/hr/m2
same,Vz,"[1]; 50 mg/m2, M",743682 mL/m2
same,half-life,"[1]; female, monkey, 25 mg/m2, F",31 h
same,half-life,"[1]; female, monkey, 50 mg/m2, F",39 h
same,Cmax,"[1]; female, monkey, plasma, 25 mg/m2, F",0.596 µg/mL
same,Cmax,"[1]; female, monkey, plasma, 50 mg/m2, F",0.835 µg/mL
same,half-life,"[1]; male, monkey, 25 mg/m2, M",18 h
same,half-life,"[1]; male, monkey, 50 mg/m2, M",39 h
same,Cmax,"[1]; male, monkey, plasma, 25 mg/m2, M",0.364 µg/mL
same,AUC,"[1]; male, monkey, plasma, 25 mg/m2, M, read-out: AUC",2.55 µg·h/mL
same,Cmax,"[1]; male, monkey, plasma, 50 mg/m2, M",1.21 µg/mL
same,AUC,"[1]; male, monkey, plasma, 50 mg/m2, M, read-out: AUC",3.29 µg·h/mL
same,effect on tumor volume,[2],appreciable reduction in tumor volume
same,percent of injected dose in the tumor,MX-1 breast tumors,3%
same,Cmax,"[3]; 5 mg/kg single IV bolus, total docetaxel in plasma",0.6 µg/mL
same,AUC(0-inf),[3]; [8],0.623 µg·h/mL
same,clearance,[3]; [8],2.33 L/h/kg
same,tmax,"[3]; plasma, 5 mg/kg single IV bolus, tmax equals the first sampling time",5 min
same,half-life,"[3]; plasma, iv, 5 mg/kg",4.4 h
same,AUC0-∞,[4],0.91 µg·h/mL
same,CL,[4],5.5 L/h/kg
same,Cmax,[4],"4,100 ng/mL"
same,t1/2,[4]; study duration was 6 hours,0.8^b h
same,tmax,[4]; tmax equals the first sampling time,2 min
same,survival to scheduled necropsy,[5]; 5.7-30 mg/kg single dose,All test subjects survived
same,"piloerection, female rats affected","[5]; female, Sprague-Dawley, rat, in vivo, 10 mg/kg",1/9
same,"piloerection, male rats affected","[5]; male, Sprague-Dawley, rat, in vivo, 10 mg/kg",5/9
same,concentration at 2 h,[6]; 2 h after single IV dose of 50 mg/kg docetaxel,12900 ± 7900 ng/g
same,concentration at 12 h,[6]; 12 h after single IV dose of 50 mg/kg docetaxel,3600 ± 2100 ng/g
"CC(=O)O[C@@]12CO[C@@H]1C[C@H](O)[C@@]1(C)C(=O)[C@H](O)C3=C(C)[C@@H](OC(=O)[C@H](O)[C@@H](NC(=O)OC(C)(C)C)c4ccccc4)C[C@@](O)([C@@H](OC(=O)c4ccccc4)[C@H]21)C3(C)C [Conventional ^14C-Docetaxel, docetaxel]",Radioactivity in Bone Marrow,[7]; 1 h after IV administration,97 ± 4.2 nCi/g
same,Radioactivity in Heart,[7]; 1 h after IV administration,71 ± 2.5 nCi/g
same,Radioactivity in Large Intestine,[7]; 1 h after IV administration,54 ± 3.6 nCi/g
same,Radioactivity in Liver,[7]; 1 h after IV administration,78 ± 15 nCi/g
same,Radioactivity in Lungs,[7]; 1 h after IV administration,82 ± 9.6 nCi/g
same,Radioactivity in Plasma,[7]; 1 h after IV administration,4.9 ± 0.4 nCi/mL
same,Radioactivity in Small Intestine,[7]; 1 h after IV administration,517 ± 99 nCi/g
same,Radioactivity in Spleen,[7]; 1 h after IV administration,100 ± 9.4 nCi/g
same,Radioactivity in Bone Marrow,[7]; 3 h after IV administration,83 ± 1.0 nCi/g
same,Radioactivity in Heart,[7]; 3 h after IV administration,39 ± 1.5 nCi/g
same,Radioactivity in Large Intestine,[7]; 3 h after IV administration,166 ± 37 nCi/g
same,Radioactivity in Liver,[7]; 3 h after IV administration,49 ± 7.3 nCi/g
same,Radioactivity in Lungs,[7]; 3 h after IV administration,66 ± 0.7 nCi/g
same,Radioactivity in Plasma,[7]; 3 h after IV administration,1.9 ± 0.2 nCi/mL
same,Radioactivity in Small Intestine,[7]; 3 h after IV administration,122 ± 43 nCi/g
same,Radioactivity in Spleen,[7]; 3 h after IV administration,81 ± 7.5 nCi/g
same,Radioactivity in Bone Marrow,[7]; 6 h after IV administration,78 ± 1.9 nCi/g
same,Radioactivity in Heart,[7]; 6 h after IV administration,33 ± 1.3 nCi/g
same,Radioactivity in Large Intestine,[7]; 6 h after IV administration,185 ± 82 nCi/g
same,Radioactivity in Liver,[7]; 6 h after IV administration,49 ± 11 nCi/g
same,Radioactivity in Lungs,[7]; 6 h after IV administration,993 ± 1605 nCi/g
same,Radioactivity in Plasma,[7]; 6 h after IV administration,1.6 ± 0.5 nCi/mL
same,Radioactivity in Small Intestine,[7]; 6 h after IV administration,62 ± 5.2 nCi/g
same,Radioactivity in Spleen,[7]; 6 h after IV administration,82 ± 4.6 nCi/g
same,Radioactivity in Bone Marrow,[7]; 12 h after IV administration,62 ± 9.4 nCi/g
same,Radioactivity in Heart,[7]; 12 h after IV administration,28 ± 1.7 nCi/g
same,Radioactivity in Large Intestine,[7]; 12 h after IV administration,83 ± 18 nCi/g
same,Radioactivity in Liver,[7]; 12 h after IV administration,55 ± 7.4 nCi/g
same,Radioactivity in Lungs,[7]; 12 h after IV administration,1438 ± 1218 nCi/g
same,Radioactivity in Plasma,[7]; 12 h after IV administration,0.8 ± 0.2 nCi/mL
same,Radioactivity in Small Intestine,[7]; 12 h after IV administration,41 ± 4.9 nCi/g
same,Radioactivity in Spleen,[7]; 12 h after IV administration,77 ± 11 nCi/g
same,Radioactivity in Bone Marrow,[7]; 24 h after IV administration,41 ± 6.8 nCi/g
same,Radioactivity in Heart,[7]; 24 h after IV administration,24 ± 2.6 nCi/g
same,Radioactivity in Large Intestine,[7]; 24 h after IV administration,48 ± 34 nCi/g
same,Radioactivity in Liver,[7]; 24 h after IV administration,43 ± 4.0 nCi/g
same,Radioactivity in Lungs,[7]; 24 h after IV administration,962 ± 99 nCi/g
same,Radioactivity in Plasma,[7]; 24 h after IV administration,0.6 ± 0.1 nCi/mL
same,Radioactivity in Small Intestine,[7]; 24 h after IV administration,47 ± 19 nCi/g
same,Radioactivity in Spleen,[7]; 24 h after IV administration,85 ± 8.6 nCi/g
